These are literature values, as cited in US20100136095A1, “Systems for modulating inflammation” (Searete LLC, a limited liability corporation of the State …, priority 2008, published 2010).

For data set [1] the following is noted: infused at 400 mg over one hour, single agent.
In data set [2] the test system is Src family kinase.
Data set [3] deals with Src family kinases (Src, Lck, Yes, Fyn). As to conditions: at nanomolar concentrations.
The subject of data set [4] is proteasome. As to conditions: cultured breast cancer cells; disulfiram bound to copper.
Data set [5] has as its system lethal septic shock. As to conditions: mice.

Consider `CCN(CC)CCCC(C)Nc1ccnc2cc(Cl)ccc12.O=P(O)(O)O.O=P(O)(O)O` (centres unmarked) [Chloroquine phosphate, 7-chloro-4-[[4-(diethylamino)-1-methylbutyl]amino]quinoline phosphate (1:2)], for which, in data set [1], the tolerability of infusion entry is “without complication”. Turning to `CCN(CC)CCCC(C)Nc1ccnc2cc(Cl)ccc12` (centres unmarked) [Chloroquine], in data set [2], the “inhibition of CpG-induced Src family kinase activation or its dependent cellular responses” value was “does not inhibit”. For the compound `Cc1nc(Nc2ncc(C(=O)Nc3c(C)cccc3Cl)s2)cc(N2CCN(CCO)CC2)n1.O` [Dasatinib, N-(2-chloro-6-methylphenyl)-2-[[6-[4-(2-hydroxyethyl)-1-piperazinyl]-2-methyl-4-pyrimidinyl]amino]-5-thiazolecarboxamide, monohydrate], in data set [3], the “inhibition of Src family kinases (Src, Lck, Yes, Fyn)” value is on record as “inhibits”. Turning to `CCN(CC)C(=S)SSC(=S)N(CC)CC` [Disulfiram, 1-(diethylthiocarbamoyldisulfanyl)-N,N-diethyl-methanethioamide], the proteasomal activity entry in data set [4] is “inhibits proteasomal activity”. With `Cl.Cl.Nc1ccccc1Oc1ccc2c(N)nsc2c1` [Example M62812, 3-amino-6-(2-aminophenoxy)-1,2-benzisothiazole dihydrochloride], the “prevention of lethal septic shock” value in data set [5] is reported as “prevents lethal septic shock”.
